Activity and IC50 data for seven compounds are collected here from ChEMBL document CHEMBL1140832, “Antimitotic quinoid triterpenes from Maytenus chuchuhuasca” (Bioorg Med Chem Lett, 2008).

Each structure is given as a SMILES string. pIC50: −log10 of the molar value. The source made the active and inactive calls. No cut-off for these calls is given here.

Experiment [1] is described as follows: Inhibition of tubulin polymerization at 100 uM.
A short description of experiment [2]: Inhibition of tubulin polymerization.
For another experiment, the system named is RPMI-8226. In words: Growth inhibition of human RPMI8226 cells. It is filed as functional, cell-based.

In the case of `COC(=O)[C@]1(C)CC[C@]2(C)CC[C@]3(C)C4=CC(=O)c5c(cc(O)c(O)c5C)[C@]4(C)CC[C@@]3(C)[C@@H]2C1`, the outcome in experiment [1] was inactive.
For the compound `COc1c(O)cc2c(c1C)C(=O)C=C1[C@@]2(C)CC[C@@]2(C)[C@@H]3C[C@@H](C)C(=O)C[C@]3(C)CC[C@]12C`, the result in experiment [1] was inactive.
As to `CC1=C(O)C(=O)C=C2C1=CC=C1[C@@]2(C)CC[C@@]2(C)[C@@H]3C[C@](C)(C(=O)O)CC[C@]3(C)CC[C@]12C` [CELASTROL], the pIC50 in experiment [2] was 5.70; with RPMI-8226, 5.52.
In the same order, the values of `COC(=O)[C@]1(C)CC[C@]2(C)CC[C@]3(C)C4=CC=C5C(=CC(=O)C(O)=C5C)[C@]4(C)CC[C@@]3(C)[C@@H]2C1` [PRISTIMERIN] are 5.10 and 4.78.
With `CC1=C(O)C(=O)C=C2C1=CC=C1[C@@]2(C)CC[C@@]2(C)[C@@H]3C[C@@H](C)C(=O)[C@@H](O)[C@]3(C)CC[C@]12C` [TINGENIN B], the pIC50 in experiment [2] was 4.92; in the experiment on RPMI-8226 it was 4.74.
Turning to `CC1=C(O)C(=O)C=C2C1=CC=C1[C@@]2(C)CC[C@@]2(C)[C@@H]3C[C@@H](C)C(=O)C[C@]3(C)CC[C@]12C` [TINGENONE], the negative logarithm of the IC50 (pIC50) in experiment [2] is 5.10; with RPMI-8226, 5.15.
In the same order, the values of `CC[C@]1(O)C[C@@H]2CN(CCc3c([nH]c4ccccc34)[C@@](C(=O)OC)(c3cc4c(cc3OC)N(C)[C@H]3[C@@](O)(C(=O)OC)[C@H](OC(C)=O)[C@]5(CC)C=CCN6CC[C@]43[C@@H]65)C2)C1` [VINBLASTINE] are 6.00 and 7.55.

Usually pIC50 stands for −log10 of the IC50, conventionally taken in molar units. Higher therefore signals a low IC50.
